# Measurements from ChEMBL document CHEMBL4376806, “Antibiotic Adjuvants: Make Antibiotics Great Again!” (2019).
# What was measured:
# Pseudomonas aeruginosa [1] = assay: Potentiation of gentamicin-induced antibacterial activity against Pseudomonas aeruginosa 03 assessed as gentamicin MIC at 32 ug/ml after 24 hrs by broth microdilution assay (reference value: 625 ug/ml); assay type: functional; conditions: Pseudomonas aeruginosa, 03, 24 h
# Staphylococcus aureus [2] = assay: Potentiation of gentamicin-induced antibacterial activity against Staphylococcus aureus 358 assessed as gentamicin MIC at 64 ug/ml after 24 hrs by broth microdilution assay (reference value: 312.5 ug/ml); assay type: functional; conditions: Staphylococcus aureus, 358, 24 h
# Staphylococcus aureus [3] = assay: Potentiation of amikacin-induced antibacterial activity against Staphylococcus aureus 358 assessed as amikacin MIC at 64 ug/ml after 24 hrs by broth microdilution assay (reference value: 156.2 ug/ml); assay type: functional; conditions: Staphylococcus aureus, 358, 24 h
# Staphylococcus aureus [4] = assay: Potentiation of neomycin-induced antibacterial activity against Staphylococcus aureus 358 assessed as neomycin MIC at 64 ug/ml after 24 hrs by broth microdilution assay (reference value: 156.2 ug/ml); assay type: functional; conditions: Staphylococcus aureus, 358, 24 h
# Escherichia coli [5] = assay: Potentiation of neomycin-induced antibacterial activity against Escherichia coli 27 assessed as neomycin MIC at 64 ug/ml after 24 hrs by broth microdilution assay (reference value: 312.5 ug/ml); assay type: functional; conditions: Escherichia coli, 27, 24 h
# Escherichia coli [6] = assay: Potentiation of amikacin-induced antibacterial activity against Escherichia coli 27 assessed as amikacin MIC at 64 ug/ml after 24 hrs by broth microdilution assay (reference value: 156.2 ug/ml); assay type: functional; conditions: Escherichia coli, 27, 24 h
# Escherichia coli [7] = assay: Potentiation of gentamicin-induced antibacterial activity against Escherichia coli 27 assessed as gentamicin MIC at 64 ug/ml after 24 hrs by broth microdilution assay (reference value: 625 ug/ml); assay type: functional; conditions: Escherichia coli, 27, 24 h
# Pseudomonas aeruginosa [8] = assay: Potentiation of amikacin-induced antibacterial activity against Pseudomonas aeruginosa 03 assessed as amikacin MIC at 32 ug/ml after 24 hrs by broth microdilution assay (reference value: 312.5 ug/ml); assay type: functional; conditions: Pseudomonas aeruginosa, 03, 24 h
# [9] = molecular target: Metallo-beta-lactamase type 2 (Klebsiella pneumoniae) (UniProt C7C422); assay: Inhibition of beta-lactamase NDM-1 in Klebsiella pneumoniae N11-2218 assessed as potentiation of meropenem-induced antibacterial activity by measuring meropenem MIC at 8 ug/ml (Rvb =32 ug/ml)
# Klebsiella pneumoniae [10] = assay: Potentiation of meropenem-induced antibacterial activity against Klebsiella pneumoniae N11-2218 harboring NDM1 infected in CD1 mouse assessed as mouse survival at 30 mg/kg, sc administered 30 mins post infection and measured 5 days post infection (reference value: 0%); assay type: functional; conditions: N11-2218, sc
# Escherichia coli [11] = assay: Inhibition of beta-lactamase TEM-8 in Escherichia coli CF3 assessed as potentiation of ceftazidime-induced antibacterial activity by measuring ceftazidime MIC (reference value: 64 ug/ml)
# Klebsiella pneumoniae [12] = assay: Inhibition of beta-lactamase TEM-2 in Klebsiella pneumoniae IP1 assessed as potentiation of ceftazidime-induced antibacterial activity by measuring ceftazidime MIC (reference value: 16 ug/ml)
# Klebsiella pneumoniae [13] = assay: Inhibition of beta-lactamase TEM-4 in Klebsiella pneumoniae 25637 assessed as potentiation of ceftazidime-induced antibacterial activity by measuring ceftazidime MIC (reference value: 32 ug/ml)
# [14] = molecular target: Beta-lactamase TEM (Escherichia coli) (UniProt P62593); assay: Inhibition of beta-lactamase TEM-1 in Escherichia coli GN5482 assessed as potentiation of ceftazidime-induced antibacterial activity by measuring ceftazidime MIC (reference value: 4 ug/ml)
# Escherichia coli [15] = assay: Inhibition of Beta-lactamase PER-1 in Escherichia coli KB10 assessed as potentiation of ceftazidime-induced antibacterial activity by measuring ceftazidime MIC (Rvb >64 ug/ml)
# Klebsiella pneumoniae [16] = assay: Inhibition of Beta-lactamase SHV-2 in Klebsiella pneumoniae IP86 assessed as potentiation of ceftazidime-induced antibacterial activity by measuring ceftazidime MIC (reference value: 64 ug/ml)
# [17] = system: MexAB/OprM (Pseudomonas aeruginosa (strain ATCC 15692 / DSM 22644 / CIP 104116 / JCM14847 / LMG 12228 / 1C / PRS 101 / PAO1)), P52477+P52002+Q51487 [UNDEFINED MUTATION]; assay: Inhibition of MexAB/OprM nalB mutant in Pseudomonas aeruginosa PAO1 K1455 assessed as potentiation of rifampin-induced antibacterial activity by […] at 20 ug/ml incubated for 18 hrs by CLSI based broth microtitre dilution method (reference value: 16 ug/ml)
# [18] = system: MexAB/OprM (Pseudomonas aeruginosa (strain ATCC 15692 / DSM 22644 / CIP 104116 / JCM14847 / LMG 12228 / 1C / PRS 101 / PAO1)), P52477+P52002+Q51487 [UNDEFINED MUTATION]; assay: Inhibition of MexAB/OprM nalB mutant in Pseudomonas aeruginosa PAO1 K1455 assessed as potentiation of cefotaxime-induced antibacterial activity by measuring cefotaxime MIC at 20 ug/ml incubated for 18 hrs by CLSI based broth microtitre dilution method (reference value: 64 ug/ml)
# [19] = system: MexAB/OprM (Pseudomonas aeruginosa (strain ATCC 15692 / DSM 22644 / CIP 104116 / JCM14847 / LMG 12228 / 1C / PRS 101 / PAO1)), P52477+P52002+Q51487 [UNDEFINED MUTATION]; assay: Inhibition of MexAB/OprM nalB mutant in Pseudomonas aeruginosa PAO1 K1455 assessed as potentiation of erythromycin-induced antibacterial activity by measuring erythromycin MIC at 20 ug/ml incubated for 18 hrs by CLSI based broth microtitre dilution method (reference value: 256 ug/ml)
# [20] = system: MexAB/OprM (Pseudomonas aeruginosa (strain ATCC 15692 / DSM 22644 / CIP 104116 / JCM14847 / LMG 12228 / 1C / PRS 101 / PAO1)), P52477+P52002+Q51487 [UNDEFINED MUTATION]; assay: Inhibition of MexAB/OprM nalB mutant in Pseudomonas aeruginosa PAO1 K1455 assessed as potentiation of novobiocin-induced antibacterial activity by measuring novobiocin MIC at 20 ug/ml incubated for 18 hrs by CLSI based broth microtitre dilution method (Rvb > 2048 ug/ml)
# [21] = system: MexAB/OprM (Pseudomonas aeruginosa (strain ATCC 15692 / DSM 22644 / CIP 104116 / JCM14847 / LMG 12228 / 1C / PRS 101 / PAO1)), P52477+P52002+Q51487 [UNDEFINED MUTATION]; assay: Inhibition of MexAB/OprM nalB mutant in Pseudomonas aeruginosa PAO1 K1455 assessed as potentiation of tetracycline-induced antibacterial activity by measuring tetracycline MIC at 20 ug/ml incubated for 18 hrs by CLSI based broth microtitre dilution method (reference value: 64 ug/ml)
# [22] = system: MexAB/OprM (Pseudomonas aeruginosa (strain ATCC 15692 / DSM 22644 / CIP 104116 / JCM14847 / LMG 12228 / 1C / PRS 101 / PAO1)), P52477+P52002+Q51487 [UNDEFINED MUTATION]; assay: Inhibition of MexAB/OprM nalB mutant in Pseudomonas aeruginosa PAO1 K1455 assessed as potentiation of levofloxacin-induced antibacterial activity by measuring levofloxacin MIC at 20 ug/ml incubated for 18 hrs by CLSI based broth microtitre dilution method (reference value: 2 ug/ml)
# Streptococcus pyogenes [23] = assay: Synergistic antibacterial activity against Streptococcus pyogenes assessed as fractional inhibitory concentration index in presence of ampicillin by checkerboard assay; assay type: functional
# Pseudomonas aeruginosa [24] = assay: Synergistic antibacterial activity against Pseudomonas aeruginosa assessed as fractional inhibitory concentration index in presence of ampicillin by checkerboard assay; assay type: functional
# Pseudomonas aeruginosa [25] = assay: Inhibition of beta-lactamase in Pseudomonas aeruginosa assessed as potentiation of ampicillin-induced antibacterial activity by measuring ampicillin MIC incubated for 24 hrs by CLSI method (Rvb >200 ug/ml)
# Streptococcus pyogenes [26] = assay: Inhibition of beta-lactamase in Streptococcus pyogenes assessed as potentiation of ampicillin-induced antibacterial activity by measuring ampicillin MIC incubated for 24 hrs by CLSI method (Rvb > 200 ug/ml)
# Escherichia coli [27] = assay: Inhibition of beta-lactamase in Escherichia coli assessed as potentiation of ampicillin-induced antibacterial activity by measuring ampicillin MIC incubated for 24 hrs by CLSI method (reference value: 100 ug/ml)
# Staphylococcus aureus [28] = assay: Inhibition of beta-lactamase in Staphylococcus aureus assessed as potentiation of ampicillin-induced antibacterial activity by measuring ampicillin MIC incubated for 24 hrs by CLSI method (Rvb > 200 ug/ml)
# Staphylococcus aureus [29] = assay: Synergistic antibacterial activity against Staphylococcus aureus assessed as fractional inhibitory concentration index in presence of ampicillin by checkerboard assay; assay type: functional
# MexAB/OprM (Pseudomonas aeruginosa (strain ATCC 15692 / DSM 22644 / CIP 104116 / JCM14847 / LMG 12228 / 1C / PRS 101 / PAO1)), P52477+P52002+Q51487 [UNDEFINED MUTATION], sequence (P52002 whole entry, looked up, stated change not applied): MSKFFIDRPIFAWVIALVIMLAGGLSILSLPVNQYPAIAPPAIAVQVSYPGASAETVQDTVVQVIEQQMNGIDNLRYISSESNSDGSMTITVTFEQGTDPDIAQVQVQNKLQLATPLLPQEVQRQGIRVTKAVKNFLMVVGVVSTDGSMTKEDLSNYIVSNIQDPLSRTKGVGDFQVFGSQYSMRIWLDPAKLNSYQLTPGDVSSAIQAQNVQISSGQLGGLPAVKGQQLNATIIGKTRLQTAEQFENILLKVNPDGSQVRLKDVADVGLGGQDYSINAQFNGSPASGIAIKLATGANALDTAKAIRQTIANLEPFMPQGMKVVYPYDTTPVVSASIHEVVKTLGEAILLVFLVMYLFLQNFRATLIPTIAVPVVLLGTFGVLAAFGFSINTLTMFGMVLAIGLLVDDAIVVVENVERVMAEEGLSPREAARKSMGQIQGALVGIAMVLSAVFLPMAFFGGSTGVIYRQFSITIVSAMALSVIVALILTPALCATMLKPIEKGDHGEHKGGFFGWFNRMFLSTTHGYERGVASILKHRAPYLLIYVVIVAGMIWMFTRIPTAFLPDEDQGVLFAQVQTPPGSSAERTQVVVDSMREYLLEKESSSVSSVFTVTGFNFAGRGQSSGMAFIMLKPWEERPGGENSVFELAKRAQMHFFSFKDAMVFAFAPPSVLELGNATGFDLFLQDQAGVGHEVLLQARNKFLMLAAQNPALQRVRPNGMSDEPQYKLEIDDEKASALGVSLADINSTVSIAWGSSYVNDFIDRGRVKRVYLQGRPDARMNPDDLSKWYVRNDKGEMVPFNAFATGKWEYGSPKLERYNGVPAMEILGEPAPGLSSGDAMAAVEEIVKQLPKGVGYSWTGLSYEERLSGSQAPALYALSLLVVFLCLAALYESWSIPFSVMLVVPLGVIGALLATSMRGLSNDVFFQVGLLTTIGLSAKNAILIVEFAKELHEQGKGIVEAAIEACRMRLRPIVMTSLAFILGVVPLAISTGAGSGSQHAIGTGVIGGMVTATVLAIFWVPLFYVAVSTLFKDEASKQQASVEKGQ
# MexAB/OprM (Pseudomonas aeruginosa (strain ATCC 15692 / DSM 22644 / CIP 104116 / JCM14847 / LMG 12228 / 1C / PRS 101 / PAO1)), P52477+P52002+Q51487 [UNDEFINED MUTATION], sequence (P52477 whole entry, looked up, stated change not applied): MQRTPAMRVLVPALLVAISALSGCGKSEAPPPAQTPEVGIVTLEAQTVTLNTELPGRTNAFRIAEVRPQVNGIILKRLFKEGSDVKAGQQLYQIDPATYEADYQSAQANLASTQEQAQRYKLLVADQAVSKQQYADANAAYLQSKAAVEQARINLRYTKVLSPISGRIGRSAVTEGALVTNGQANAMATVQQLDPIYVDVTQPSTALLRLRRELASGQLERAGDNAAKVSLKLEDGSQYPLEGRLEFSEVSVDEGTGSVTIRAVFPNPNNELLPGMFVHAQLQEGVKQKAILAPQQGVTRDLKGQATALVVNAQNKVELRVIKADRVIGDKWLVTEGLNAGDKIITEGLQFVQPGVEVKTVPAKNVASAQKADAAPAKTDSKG
# MexAB/OprM (Pseudomonas aeruginosa (strain ATCC 15692 / DSM 22644 / CIP 104116 / JCM14847 / LMG 12228 / 1C / PRS 101 / PAO1)), P52477+P52002+Q51487 [UNDEFINED MUTATION], sequence (Q51487 whole entry, looked up, stated change not applied): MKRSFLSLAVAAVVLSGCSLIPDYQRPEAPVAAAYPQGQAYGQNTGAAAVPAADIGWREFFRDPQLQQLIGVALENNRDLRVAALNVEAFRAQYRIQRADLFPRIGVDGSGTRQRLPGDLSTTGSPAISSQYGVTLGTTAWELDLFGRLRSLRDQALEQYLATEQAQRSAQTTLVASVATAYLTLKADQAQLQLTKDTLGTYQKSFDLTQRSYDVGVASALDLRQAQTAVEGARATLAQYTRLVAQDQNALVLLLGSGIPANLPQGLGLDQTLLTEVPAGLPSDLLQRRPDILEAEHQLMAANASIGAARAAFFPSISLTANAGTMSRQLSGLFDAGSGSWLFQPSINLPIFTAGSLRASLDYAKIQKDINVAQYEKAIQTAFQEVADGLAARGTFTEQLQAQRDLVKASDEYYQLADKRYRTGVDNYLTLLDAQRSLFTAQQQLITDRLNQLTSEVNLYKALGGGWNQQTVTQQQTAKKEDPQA
# Beta-lactamase TEM (Escherichia coli), sequence (P62593 whole entry): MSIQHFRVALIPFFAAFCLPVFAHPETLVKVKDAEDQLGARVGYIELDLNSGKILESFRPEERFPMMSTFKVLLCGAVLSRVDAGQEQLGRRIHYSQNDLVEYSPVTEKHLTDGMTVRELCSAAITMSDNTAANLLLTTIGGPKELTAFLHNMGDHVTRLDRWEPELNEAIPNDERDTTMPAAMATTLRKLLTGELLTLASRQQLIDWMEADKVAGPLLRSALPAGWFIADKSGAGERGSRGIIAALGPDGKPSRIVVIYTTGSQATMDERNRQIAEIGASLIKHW
# Metallo-beta-lactamase type 2 (Klebsiella pneumoniae), sequence (C7C422 whole entry): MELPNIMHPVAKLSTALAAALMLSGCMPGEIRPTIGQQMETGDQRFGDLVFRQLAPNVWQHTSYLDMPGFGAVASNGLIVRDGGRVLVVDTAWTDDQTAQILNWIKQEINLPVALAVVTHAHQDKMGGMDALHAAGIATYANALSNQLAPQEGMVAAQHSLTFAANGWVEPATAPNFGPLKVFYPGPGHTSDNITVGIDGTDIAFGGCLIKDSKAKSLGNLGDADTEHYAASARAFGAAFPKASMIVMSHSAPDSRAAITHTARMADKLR
compound,measurement,setting,value
CC1=CC(=O)c2ccccc2C1=O [MENADIONE],MIC,Pseudomonas aeruginosa [1],2.4 µg/mL
same,MIC,Staphylococcus aureus [2],2.4 µg/mL
same,MIC,Staphylococcus aureus [3],2.4 µg/mL
same,MIC,Staphylococcus aureus [4],2.4 µg/mL
same,MIC,Escherichia coli [5],2.4 µg/mL
same,MIC,Escherichia coli [6],2.4 µg/mL
same,MIC,Escherichia coli [7],2.4 µg/mL
same,MIC,Pseudomonas aeruginosa [8],2.4 µg/mL
N[C@H](CN[C@H](CN[C@@H](CC(=O)O)C(=O)O)C(=O)O)C(=O)O,MIC,[9],1 µg/mL
same,survival at 30 mg/kg,Klebsiella pneumoniae [10],95%
NC(=O)[C@@H]1CC[C@@H]2CN1C(=O)N2OS(=O)(=O)O,MIC,Escherichia coli [11],2 µg/mL
same,MIC,Klebsiella pneumoniae [12],0.5 µg/mL
same,MIC,Klebsiella pneumoniae [13],0.5 µg/mL
same,MIC,[14],0.5 µg/mL
same,MIC,Escherichia coli [15],4 µg/mL
same,MIC,Klebsiella pneumoniae [16],1 µg/mL
C[C@H]1[C@H]2CC[C@H]3[C@@H]4CC=C5C[C@@H](N(C)C)CC[C@]5(C)[C@H]4CC[C@]23CN1C,MIC,[17],2 µg/mL
same,MIC,[18],8 µg/mL
same,MIC,[19],32 µg/mL
same,MIC,[20],256 µg/mL
same,MIC,[21],8 µg/mL
same,MIC,[22],0.25 µg/mL
CC[C@H](/C=C/[C@@H](C)[C@H]1CC[C@H]2[C@@H]3CC=C4C[C@@H](O)CC[C@]4(C)[C@H]3CC[C@]12C)C(C)C [STIGMASTEROL],fractional inhibitory concentration index (FICI),Streptococcus pyogenes [23],<0.5
same,fractional inhibitory concentration index (FICI),Pseudomonas aeruginosa [24],<0.5
same,MIC,Pseudomonas aeruginosa [25],6.25 µg/mL
same,MIC,Streptococcus pyogenes [26],1.56 µg/mL
same,MIC,Escherichia coli [27],6.25 µg/mL
same,MIC,Staphylococcus aureus [28],3.13 µg/mL
same,fractional inhibitory concentration index (FICI),Staphylococcus aureus [29],<0.5
